Test results from patent US20150147276A1, “NANOTHERAPEUTICS FOR DRUG TARGETING” (PRESIDENT AND FELLOWS OF HARVARD COLLEGE, priority 2012, published 2015).
“Also recorded” adds a separate entry of the source.

Assays:
[1] = tested on: thrombus in FeCl3-injured mesenteric arteries; assay: Mouse ferric chloride arterial injury (thrombosis) model; assay type: in vivo; conditions: bolus, same tPA dose (50 ng)
Description: A previously described model was used with minor modifications (16). In brief, male C57BL/6 mice (3-4 weeks old) were anesthetized with 2.5% tribromoethanol (0.15 ml/10 g) and injected with fluorescently labeled platelets (calceinRed/Orange, ˜1×10^9 platelets/kg). An incision was made through the abdominal wall to expose the mesentery and arterioles (˜100 μm in diameter) were visualized using a Zeiss Axiovert 135-inverted microscope (objectives: 10× and 32×, Carl Zeiss Microlmaging, Inc.) and recorded on videotape. Whatman filter paper saturated with FeCl3 (10%) solution was applied topically for 5 min, which caused denudation of the endothelium. […] Following this bolus injection, the vessels were monitored until full occlusion occurred (blood flow stopped) and lasted for more than 10 seconds. The shear rate was calculated using an optical Doppler velocity meter (Microcirculation Research Institute, Texas A&M College of Medicine, College Station, Tex.) (17). […]

[2] = tested on: fibrin clots in pulmonary arteries; assay: Ex vivo mouse pulmonary embolism model (lung ventilation-perfusion)
Description: (§1) Fibrin clots were formed by adding CaCl2 (20 mM) and human α-thrombin (1 units/ml final concentrations, Enzyme Research Laboratories, IN) to human fibrinogen (5 mg/ml, Enzyme Research Laboratories, IN), as previously described (23, 31). This solution was immediately added drop-wise to a solution of canola oil with Span-80 (0.05%). The emulsion was mixed at 350 rpm for 4 hr and centrifuged (500 g, 5 min), followed by repeated washing in ethanol and water. The diameter of the resulting fibrin beads was determined by optical microscopy to be ˜250 μm. By adjusting the mixing speed in the described protocol, fibrin beads of smaller defined sizes were produced.
6-8 week-old C57BL/6 male mice (Jackson Laboratory, Bar Harbor, Me.) were weighed and anesthetized with Avertin (200 mg/kg IP). The trachea was incised via surgical tracheotomy, and cannulated with a blunted 22G stainless steel needle tip. The lungs were subsequently ventilated at a rate of 60 breaths/min, with a Peak Inspiratory Pressure (Pip) of 10 cm H2O and a Positive End Expiratory Pressure (Peep) of 3 cmH2O with compressed air using a mouse ventilator (VCM-R, Hugo Sachs Elektroniks, Germany). Ex vivo ventilation and perfusion of the mouse lung was performed using an IL1 ex vivo mouse lung ventilation-perfusion system (Harvard Apparatus, Natick, Mass.), (32). Following initiation of mechanical ventilation, the chest was opened via thoracotomy, and heparin (100 IU) was injected into the right ventricle. […] A suture was placed around the pulmonary artery and aorta. Cannulae made from polyethylene tubing (PE90 (0.86 mm ID, 1.7 mm OD)) were placed in the pulmonary artery (PA) and left atrium (LA), and lungs were perfused with RPMI-1640 with 4% Bovine Albumin (PROBUMIN™ Reagent Grade, Billerica, Mass.) and 0.7 g NaCl/500 ml via a roller pump (ISM 834C, Ismatec SA, Switzerland) set at a constant flow rate of 0.5 ml/min in a recirculating system with a system volume of 6 ml. Perfusate and lung temperatures were maintained at 37° C. by housing the entire ex-vivo ventilation perfusion system inside a standard cell incubator without CO2 (Forma Scientific, Ohio). Humidity was maintained in the range […]. Pulmonary arterial and left atrial pressures and airway flow and pressures were recorded with dedicated Type 379 vascular pressure and DLP2.5 flow and MPX Type 399/2airway pressure transducers and TAM-A amplifiers (Hugo Sachs Elektroniks, Germany). Vascular pressures were zeroed at the mid lung level prior to each experiment and recorded using Polyview16© software (Grass Technologies, West Warwick, R.I.). Prior to injection of experimental fibrin clots (prepared as above), the measured pressures were allowed to stabilize and remain stable for a period of more than 10 minutes. A solution of fibrin clots suspended in perfusion medium was infused at a flow rate of 0.1 ml/min and mixed with the regular perfusion line entering the pulmonary artery. The fibrin clot suspension was infused until the pulmonary artery pressure increased to ˜three-fold higher than the baseline. The system was then allowed to equilibrate and remain stable for at least 10 minutes. Next, tPA-coated SA-NTs or free soluble tPA was added to the main perfusion line and circulated through the perfusion system. As in the microfluidic device experiments, when tPA was perfused, plasminogen was added to obtain a final concentration of 2.2 μM. Pulmonary artery and vein pressures were acquired continuously during the perfusion period. […]

fibrin clots = target: T1, fibrin clots (Homo sapiens, UniProt P02671+P02675+P02679); assay: Microfluidic model of vascular embolism (fibrin clot lysis); assay type: biochemical; conditions: 50 ng/ml tPA, same flow conditions
T1 construct: purchased Enzyme Research Laboratories, IN (fibrinogen, α-thrombin); Cell Sciences, MA (plasminogen)
T1 sequence (P02671 36-629 limits assumed): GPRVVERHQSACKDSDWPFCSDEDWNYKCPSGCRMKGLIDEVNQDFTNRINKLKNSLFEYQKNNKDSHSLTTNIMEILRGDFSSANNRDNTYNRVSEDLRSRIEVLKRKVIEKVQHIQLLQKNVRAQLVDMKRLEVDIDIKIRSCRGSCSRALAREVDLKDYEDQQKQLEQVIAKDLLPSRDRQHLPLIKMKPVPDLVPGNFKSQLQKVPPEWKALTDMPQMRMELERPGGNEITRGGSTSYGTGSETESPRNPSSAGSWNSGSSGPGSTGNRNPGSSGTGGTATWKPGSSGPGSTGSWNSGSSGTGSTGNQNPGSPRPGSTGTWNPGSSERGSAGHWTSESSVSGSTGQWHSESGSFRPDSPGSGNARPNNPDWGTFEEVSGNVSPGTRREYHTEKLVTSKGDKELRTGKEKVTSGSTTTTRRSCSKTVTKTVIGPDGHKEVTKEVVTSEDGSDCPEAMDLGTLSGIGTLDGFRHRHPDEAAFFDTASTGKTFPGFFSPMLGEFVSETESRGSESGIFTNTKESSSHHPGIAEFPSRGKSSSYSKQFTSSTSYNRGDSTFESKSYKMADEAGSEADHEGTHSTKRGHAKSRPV
T1 sequence (P02675 45-491 limits assumed): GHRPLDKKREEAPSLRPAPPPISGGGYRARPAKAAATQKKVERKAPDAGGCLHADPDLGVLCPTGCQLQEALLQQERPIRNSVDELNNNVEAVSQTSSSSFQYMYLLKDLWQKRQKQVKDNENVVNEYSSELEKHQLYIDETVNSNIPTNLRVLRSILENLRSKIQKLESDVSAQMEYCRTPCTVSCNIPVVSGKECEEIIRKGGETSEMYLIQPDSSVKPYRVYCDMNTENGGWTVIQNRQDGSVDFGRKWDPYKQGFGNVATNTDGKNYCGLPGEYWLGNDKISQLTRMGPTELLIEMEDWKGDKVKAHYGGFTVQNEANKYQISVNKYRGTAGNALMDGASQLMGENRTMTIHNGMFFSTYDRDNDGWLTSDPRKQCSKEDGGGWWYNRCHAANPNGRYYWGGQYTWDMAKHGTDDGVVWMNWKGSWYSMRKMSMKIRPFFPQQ
T1 sequence (P02679 27-437 isoform P02679-2 limits assumed): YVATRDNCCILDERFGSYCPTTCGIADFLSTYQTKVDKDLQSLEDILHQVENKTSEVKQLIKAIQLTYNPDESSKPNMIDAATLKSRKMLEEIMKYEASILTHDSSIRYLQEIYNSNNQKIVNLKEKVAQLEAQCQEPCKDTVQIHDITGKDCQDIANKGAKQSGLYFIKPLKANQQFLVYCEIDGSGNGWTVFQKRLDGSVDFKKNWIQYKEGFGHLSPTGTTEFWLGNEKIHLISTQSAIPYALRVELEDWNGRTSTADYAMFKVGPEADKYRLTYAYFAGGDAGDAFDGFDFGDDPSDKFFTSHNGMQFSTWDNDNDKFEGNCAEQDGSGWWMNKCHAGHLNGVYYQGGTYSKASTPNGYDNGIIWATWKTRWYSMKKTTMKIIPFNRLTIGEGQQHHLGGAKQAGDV
Source text: Microfluidic devices with a narrowed cross-sectional area (80 μm high×0.5 mm wide×200 mm long) were fabricated using soft lithography as described above. Fibrin clots formed as described below that were infused into the main channel lodged and obstructed the flow in these smaller channels. A solution of tPA or tPA coated SA-NTs was infused at a flow rate corresponding to a shear stress of 10 dyne/cm2 in an unobstructed channel. Prior to infusion of the tPA solutions, bovine plasminogen (Cell Sciences, MA) was added to a final concentration of 2.2 μM (30). During the fibrinolysis process, the fibrin clot sizes were monitored in real-time (images acquired every 30 sec) on an inverted Zeiss microscope.
as §1

reduction in clot size (fibrin clots): < 5%
Substance: tissue plasminogen activator [free tPA]
delay of time to full vascular occlusion [1]: did not produce any significant delay; also recorded: neither addition of free tPA, pre-dissociated tPA-NPs, nor heat-fused tPA-NP microaggregates (that do not dissociate in high shear) produced any detectable effects
effect on pulmonary artery pressure ([2]; 50 ng/ml): did not reduce pulmonary artery pressure
effect on pulmonary artery pressure ([2]; 50 ng/ml, listed as soluble tPA): failed to produce any significant response
effect on pulmonary artery pressure ([2]; 500 ng/ml (ten times higher dose)): did not reduce pulmonary artery pressure
effect on pulmonary artery pressure ([2]; 500 ng/ml (ten times higher dose), listed as soluble tPA): failed to produce any significant response
effect on pulmonary artery pressure ([2]; 5,000 ng/ml (100-fold higher dose)): produced similar effects
